The text below walks through data of patent US20220402917A1, “COMPOUND AS SMALL MOLECULE INHIBITOR PD-1/PD-L1 AND APPLICATION THEREOF” (MEDSHINE DISCOVERY INC., priority 2019, published 2022).

In data set [1] the target is T1, PD-L1 in MDA-MR-231 cells (Homo sapiens, UniProt Q9NZQ7).
T1 construct: endogenous in cells; host or cells: MDA-MB-231
Description: Effect on expression level of PD-L1 in MDA-MR-231 cells (FACS). It counts as cell-based. The settings on record: 24 hours incubation, FACS detection of cell surface PD-L1. On the procedure:
Experimental Example 2: Using MDA-MR-231 Cells to Detect the Effect of Compounds on the Expression Level of PD-L1
The use of a triple-negative breast cancer cell line (MDA-MB-231) is an indirect method to assess PD-L1 endocytosis. PD-L1 molecules on the cell surface can be degraded by lysosomal and proteasome pathways, and small molecule inhibitors are added to induce PD-L1 endocytosis. After co-incubating small molecules with MDA-MB-231 cells for 24 hours, flow cytometry (Fluorescence-activated Cell Sorting, FACS) is used to detect the content of PD-L1 on the cell surface, which can indirectly reflect the effect of small molecule-induced PD-L1 endocytosis. Flow cytometry (FACS) is used to detect the effect of the compounds of the present disclosure on the expression level of PD-L1 in MDA-MR-231 cells.
Phosphate buffer (DPBS), 1640 medium, penicillin-streptomycin, fetal bovine serum, non-essential amino acids, 2-hydroxy-1-ethanethiol (2-ME), human interferon γ, LIVE/DEAD staining solution, staining buffer, fixation buffer, 0.25% trypsin, EDTA, anti-human PD-L1, anti-human PD-L1 isotype.
1640 complete medium preparation: 50 mL of fetal bovine serum, 5 mL of non-essential amino acids, 5 mL of penicillin-streptomycin and 0.5 mL of 2-hydroxy-1-ethanethiol were added to 439.5 mL of 1640 medium, and evenly mixed.
10 mM EDTA preparation: 1 mL of 0.5M EDTA was added to 49 mL of DPBS, and evenly mixed.
1) MDA-MB-231 cell counting and plating: The culture flask was taken out, the medium was removed and the culture flask was rinsed once with DPBS. After the culture flask was rinsed, 3 mL of 0.25% trypsin was added to the culture flask and the culture flask was placed in a 37° C. incubator for 1.5 min. The culture flask was taken out, 9 mL of 1640 complete medium was added to stop the reaction, the cells was transferred to a 50 mL centrifuge tube, and centrifuged at 1000 rpm for 5 min at 37° C. An appropriate volume of medium was added to re-suspend the cells according to the number of cells, and the number of cells was counted with a cell counter. The cell concentration was adjusted to 5×10^5 cells/mL with medium. Planking: A volume of 200 μL of cell suspension was added to each well of a 96-well plate, ensure that the number of cells in each well was 1×10^5. The cells were incubated overnight in an incubator. 2) Drug incubation: 100-fold dilution of compounds were prepared, and the drug was subjected to a 5-fold gradient dilution. 2 μL of each 100-fold dilution of compounds were added to each well. The cells were incubated in an incubator at 37° C. for 24 hours. 3) PD-L1 cell staining and FACS detection: the culture plate was taken out and the supernatant medium was discarded. The cells were washed once with 200 μL 1×PBS. 100 μL of EDTA (final concentration of 10 mM) was added to the cell suspension, and the cell suspension was treated at 37° C. for 10 min. Then after the cell suspension was centrifuged at 1500 rpm for 5 min, the cell suspension was washed once with 200 μL of staining solution. Staining: anti-human PD-L1 (2 μL per well) and LIVE/DEAD staining solution (1:1000) were diluted in staining solution, 50 μL of the staining solution was added to each well, and the staining was conducted at 4° C. for 30 min. Then the solution was washed twice with 200 μL of staining solution. Fixation: 100 μL of fixing solution was added to each well, the fixation was conducted at 4° C. for 15 min. The solution was then washed twice with 200 μL of staining solution, and 150 μL of solution was added to re-suspend the cells, followed by FACS detection.
Table 2 provides the effects of the compounds of the examples of the present disclosure on the expression level of PD-L1 in MDA-MR-231 cells.

Data set [2] has as its target T2, PD1/PD-L1 (Homo sapiens, UniProt Q9NZQ7). Description: PD-1/PD-L1 homogeneous time-resolved fluorescence (HTRF) binding experiment. The settings on record: HTRF (TR-FRET), PD-L1-biotin, PD1-Eu. Also on record: purchased BPS Biosciences. The text has this: Experimental Example 1: PD-1/PD-L1 Homogenouse Time-Resolved Fluorescence (HTRF) Binding Experiment
When the PD-1 molecule as the donor is very close to the PD-L1 molecule as the acceptor, the donor molecule will transfer the energy to the receptor molecule, which in turn causes the receptor molecule to emit fluorescence. The ability of small molecules to prevent the binding of PD-L1 to PD-1 can be tested by detecting the intensity of fluorescence. A homogeneous time-resolved fluorescence (HTRF) binding experiment is used to detect the ability of the compounds of the present disclosure to inhibit the binding of PD-1/PD-L1.
PD1/PD-L1 TR-FRET detection kit was purchased from BPS Biosciences. Nivo multi-label analyzer (PerkinElmer).
PD1-Eu, Dye-labeled acceptor, PD-L1-biotin and compounds to be tested were diluted with the buffer in the kit. The compounds to be tested were subjected to 5-fold dilution to eight concentration gradients with a row gun. That is, from 40 μM to 0.5 nM, the DMSO concentration was 4%, and a double-well experiment was set up. 5 μL of inhibitor with each concentration gradient were added to the microwell plate, and 5 μL buffer containing 4% DMSO and 5 μL PD-L1-biotin (PD-L1-biotin) (60 nM) were added into well with the maximum signal (Max) and the well with the minimum signal (Min), only 5 μL of buffer was added to the well with the minimum signal (Min), and the incubation was conducted at 25° C. for 20 minutes. After the incubation was completed, 5 μL of diluted PD1-Eu (10 nM) and […] were added to each well. The reaction system was placed at 25° C. for 90 minutes. The TR-FRET signal was read by a multi-label analyzer after the reaction was completed.
Using the equation (sample−Min)/(Max−Min)×100% to convert the raw data into inhibition rate, and the IC50 value can be obtained by curve fitting with four parameters (obtained from log(inhibitor) vs. response—Variable slope mode in GraphPad Prism). Table 1 provides the inhibitory activity of the compounds of the examples of the present disclosure on PD1/PD-L1 binding
(TR-FRET usually uses a lanthanide donor and a delayed reading to cut background.)
Target sequence in this assay (Q9NZQ7 19-239 limits assumed): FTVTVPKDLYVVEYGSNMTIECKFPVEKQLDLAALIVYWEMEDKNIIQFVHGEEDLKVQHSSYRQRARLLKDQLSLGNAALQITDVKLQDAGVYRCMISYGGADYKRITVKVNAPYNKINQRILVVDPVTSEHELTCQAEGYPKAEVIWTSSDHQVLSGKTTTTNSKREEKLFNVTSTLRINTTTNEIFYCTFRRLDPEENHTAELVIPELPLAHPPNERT

Data set [3] deals with T2, PD1/PD-L1. Put plainly: NFAT activity test (TCR Activitor/PD-L1 CHO cells with PD-1/NFAT Reporter-Jurkat cells). Also on record: host or cells: TCR Activitor/PD-L1 CHO cells; PD-1/NFAT Reporter-Jurkat cells. Conditions: TCR Activitor/PD-L1 CHO cells + PD-1/NFAT Reporter-Jurkat cells, 5 hours, luciferase; for IC50: read-out: IC50, inhibitory activity on PD1/PD-L1 binding (NFAT activity test). The format is cell-based. The text has this:
Experimental Example 3: NFAT Activity Test
The engineered T cell expresses PD-1 molecules and T cell receptor (TCR) on the surface, which can activate the NFAT signaling pathway of T cells after co-culturing with engineered antigen presenting cells (APCs). Expression of PD-L1 molecules on APCs can effectively attenuate the NFAT signaling pathway in T cells. PD-L1 inhibitors can be used effectively block the PD-1/PD-L1 regulatory mechanism, thereby reversing the weakened NFAT signaling pathway. After being pretreated with APC, the small molecule is co-cultured with T cells, then the expression of luciferase was detected to indirectly reflect the activation of the NFAT pathway in T cells.
The PD1/PD-L1 NFAT detection kit was purchased from BPS Biosciences. Birght-Glo reagent was purchased from Promega. Nivo multi-label analyzer (PerkinElmer).
The TCR Activitor/PD-L1 CHO cells with a growth confluence of 80% were plated into the plate at 35,000 cells per well and placed in a 37° C. cell culture incubator overnight; the compounds to be tested were diluted 5-fold to the 8th concentration, from 20 μM to 0.25 nM, and the DMSO concentration was 2%, a double-well experiment was set up. The TCR Activitor/PD-L1 CHO cell supernatant was discarded, 50 μl of compound working solution was added to each well, incubated at 37° C. for 30 minutes; after the incubation was completed, 50 μL of PD-1/NFAT Reporter-Jurkat cell suspension with a concentration of 4*10^5 cells/mL was added to each well, incubated at 37° C. for 5 hours. After the incubation was completed, 100 μL Bright-Glo was added to each well, and after mixing, the chemiluminescence signal was detected by a Nivo multi-label analyzer.
Using the equation (sample−Min)/(Max−Min)×100% to convert the raw data into inhibition rate, and the IC50 value can be obtained by curve fitting with four parameters (obtained from log(inhibitor) vs. response—Variable slope mode in GraphPad Prism). Table 3 provides the inhibitory activity of the compounds of the examples of the present disclosure on PD1/PD-L1 binding.
Target sequence in this assay (Q9NZQ7 19-290): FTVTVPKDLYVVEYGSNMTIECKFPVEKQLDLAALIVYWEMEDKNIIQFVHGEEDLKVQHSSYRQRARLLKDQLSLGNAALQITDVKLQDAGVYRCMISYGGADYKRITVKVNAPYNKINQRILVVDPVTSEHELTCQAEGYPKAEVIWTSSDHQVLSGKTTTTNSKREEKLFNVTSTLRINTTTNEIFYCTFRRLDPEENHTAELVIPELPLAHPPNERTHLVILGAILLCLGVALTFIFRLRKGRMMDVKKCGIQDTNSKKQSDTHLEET

A short description of data set [4]: Pharmacokinetic test in C57BL/6 mice. It counts as in vivo. The settings on record: mouse, plasma, male C57BL/6 mice; for bioavailability: PO 10 mg/kg vs IV 1 mg/kg, read-out: Bioavailability F; for Cmax / clearance / half-life / Vd: IV 1 mg/kg; for Cmax: PO 10 mg/kg (route not given for Cmax), read-out: Peak concentration Cmax; for clearance: read-out: Clearance CL; for half-life: read-out: Half-life T1/2 (IV) (converted); for Vd: read-out: Tissue distribution Vdss; for AUC(0-t): PO 10 mg/kg, read-out: Area under the drug-time curve AUC0-last PO. The method, then:
Experimental Example 4: Pharmacokinetic Test
Experimental purpose: To study the pharmacokinetics of compounds in C57BL/6 mice.
Experimental materials: C57BL/6 mice (male, 8 weeks old, body weight 25 g-30 g)
Experimental operation: The pharmacokinetic characteristics of rodents after intravenous (IV) and oral (PO) administration of compounds were tested in standard protocols. In the experiment, the candidate compounds were formulated into 1 mg/mL clear solutions, and administered to mice via a single intravenous injection and oral administration. The vehicle of intravenous and oral administration was 5% DMSO/5% polyethylene glycol 15-hydroxystearate (Solutol)/90% aqueous solution. Four male C57BL/6 mice were used in the experiment, wherein two mice were administered intravenously at a dose of 1 mg/kg, and the plasma samples were collected 0.0833, 0.25, 0.5, 1, 2, 4, 6, 8 and 24 h after administration, the other two mice were given oral gavage at a dose of 10 mg/kg, and the plasma samples were collected 0.25, 0.5, 1, 2, 4, 6, 8, and 24 h after administration. Whole blood samples within 24 hours were collected, centrifuged at 3000 g for 15 minutes, and the supernatant was separated to obtain plasma samples. Acetonitrile solution containing internal standard was added thereto to precipitate proteins, the mixture was thoroughly mixed and centrifuged to obtain the supernatant for injection. The plasma concentration was quantified by LC-MS/MS analysis method, and the pharmacokinetic parameters were calculated, such as peak concentration (Cmax), clearance (CL), half-life (T1/2), […] (Vdss), area under the drug-time curve (AUC0-last), bioavailability (F) and so on.

T1 sequence (Q9NZQ7 19-290): as above

Take `Cc1cc(C(=O)Nc2cccc(-c3cccc(NC(=O)c4ccc(CNCCO)cn4)c3C)c2Cl)nc2c1CCN(C(CO)CO)C2` [Compound 11]: the results for the IC50 in data set [1], in data set [2] and in data set [3] were 25.1 nM, 4.54 nM and 42.5 nM, respectively. In data set [3], the “Maximum effect (induction fold)” value turned out to be 3.81 induction fold.

`Cc1cc(C(=O)Nc2cccc(-c3cccc(NC(=O)c4ccc(CNCCO)cn4)c3C)c2C)nc2c1CCN(CCO)C2` [Compound 1]: the values for the IC50 in data set [1], in data set [2] and in data set [3] were 62.5 nM, 2.08 nM and 34.9 nM, respectively. Besides, the “Maximum effect (induction fold)” value in data set [3] came out at 3.71 induction fold.

Turning to `Cc1cc(C(=O)Nc2cccc(-c3cccc(NC(=O)c4ccc(CNCCO)cn4)c3C)c2Cl)nc2c1CCN(C1CCC(O)CC1)C2` (stereo not drawn) [Compound 15], the IC50 in data set [1] is 29.3 nM; in data set [2], 8.86 nM; in data set [3], 33.9 nM. The “Maximum effect (induction fold)” value in data set [3] is recorded as 3.80 induction fold.

`Cc1cc(C(=O)Nc2cccc(-c3cccc(NC(=O)c4ccc(CNCCO)cn4)c3C)c2C)nc2c1CN(CCO)CC2` [Compound 2] had an IC50 in data set [2] of 2.1 nM.

On to `COc1nc(-c2cccc(-c3cccc(NC(=O)c4cc(C)c5c(n4)CN(CCO)C5)c3Cl)c2Cl)cnc1CN1CC(O)C1` [Compound 50], for which, in data set [4], the bioavailability amounted to 63.5%, the Cmax was 221 nM, the clearance stood at 85.5 mL/min/kg and the half-life is 3.72 h. Besides, in data set [4], the Vd turned out to be 18.3 L/kg and the AUC(0-t) amounted to 1.66 µM·h. Further, in data set [3], the “Maximum effect (induction fold)” value was found to be 4.55 induction fold and the IC50 came to 45.8 nM.

Consider `Cc1cc(C(=O)Nc2cccc(-c3cccc(NC(=O)c4ccc(CNCCO)cn4)c3C)c2Cl)nc2c1CCN(C1CCC(C)(C(=O)O)CC1)C2` (stereo not drawn) [Compound 20], for which the results for the IC50 in data set [2] and in data set [3] were 3.58 nM and 16.9 nM, respectively. For the same molecule, the “Maximum effect (induction fold)” value in data set [3] is reported as 3.43 induction fold.

On to `Cc1cc(C(=O)Nc2cccc(-c3cccc(NC(=O)c4ccc(CNCCO)cn4)c3C)c2C#N)nc2c1CCN(CCO)C2` [Compound 7], for which, in data set [2], the IC50 was found to be 3.22 nM. In data set [3], the “Maximum effect (induction fold)” value is given as 3.38 induction fold and the IC50 was 38.4 nM.

On to `COc1cc(C(=O)Nc2cccc(-c3cccc(-c4cnc(CN5CC(C)(O)C5)c(OC)n4)c3Cl)c2Cl)nc2c1CCN(CCO)C2` [Compound 42], for which the IC50 in data set [1] stood at 9.48 nM. In data set [4], the bioavailability was 61.6%, the Cmax worked out at 260 nM, the clearance came out at 36.6 mL/min/kg and the half-life was 16.4 h. In data set [4], the Vd worked out at 40.8 L/kg and the AUC(0-t) came out at 3.1 µM·h. For the same molecule, in data set [3], the “Maximum effect (induction fold)” value was found to be 4.39 induction fold and the IC50 is 23.4 nM.

What is called bioavailability is the share of a dose that reaches the circulation, judged against a reference dose that is usually intravenous. As usually defined, the clearance is the volume of plasma or blood freed of the substance per unit of time.
